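Tested at 5 concentrations; 48 h exposure; 96-well plates; endpoints linearly interpolated, else capped at highest concentration. GI50 = concentration required for 50% inhibition of growth.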 The source made the active and inactive calls. Cut-off read from the data, not from the text of the source: active = GI50 up to about 1.1 µM and inactive = higher.
Columns and labels:
Experiment in all cases: NCI-60 cell line screen, 48 h
UO-31 = system: UO-31
RXF 393 = system: RXF 393
NCI-H226 = system: NCI-H226
CCRF-CEM = system: CCRF-CEM
SF-268 = system: SF-268
NCI-H522 = system: NCI-H522
SNB-75 = system: SNB-75
IGROV-1 = system: IGROV-1
A549 = system: A549
NCI/ADR-RES = system: NCI/ADR-RES
SK-MEL-28 = system: SK-MEL-28
K562 = system: K562
EKVX = system: EKVX
OVCAR-3 = system: OVCAR-3
MCF7 = system: MCF7
786-0 = system: 786-0
CAKI-1 = system: CAKI-1
LOX IMVI = system: LOX IMVI
HOP-92 = system: HOP-92

Measured: GI50

C=Cc1ccccc1C1(O)C=CC(OC)(OC)C=C1
inactive: UO-31 7.24 µM | RXF 393 4.97 µM | NCI-H226 30.5 µM | CCRF-CEM 2.94 µM | SF-268 9.62 µM | NCI-H522 7.26 µM | SNB-75 18.8 µM | IGROV-1 13.4 µM | A549 17.3 µM | NCI/ADR-RES 4.81 µM | SK-MEL-28 6.89 µM | K562 7.6 µM | EKVX 14.7 µM | OVCAR-3 3.05 µM | MCF7 2.94 µM | 786-0 5.04 µM | CAKI-1 5.68 µM

CC(=C\c1ccccc1)/C=C(\C#N)C(N)=O
inactive: UO-31 > 10 µM | RXF 393 > 10 µM | NCI-H226 > 10 µM | SF-268 > 10 µM | NCI-H522 > 10 µM | SNB-75 > 10 µM | IGROV-1 > 10 µM | NCI/ADR-RES > 10 µM | SK-MEL-28 > 10 µM | EKVX > 10 µM | OVCAR-3 > 10 µM | LOX IMVI > 10 µM | MCF7 > 10 µM | 786-0 > 10 µM | CAKI-1 > 10 µM

Cc1[nH]n(-c2nc3c(c(=O)[nH]2)CCCC3)c(=O)c1CCO
inactive: UO-31 > 100 µM | RXF 393 > 100 µM | NCI-H226 > 100 µM | CCRF-CEM > 100 µM | SF-268 > 100 µM | NCI-H522 > 100 µM | IGROV-1 > 100 µM | A549 > 100 µM | NCI/ADR-RES > 100 µM | SK-MEL-28 > 100 µM | K562 > 100 µM | EKVX > 100 µM | OVCAR-3 > 100 µM | LOX IMVI > 100 µM | MCF7 > 100 µM | 786-0 > 100 µM | CAKI-1 60 µM

C=CCNC(=S)NC=C(C(N)=O)C(N)=O
inactive: UO-31 87.9 µM | RXF 393 > 100 µM | NCI-H226 > 100 µM | CCRF-CEM > 100 µM | SF-268 > 100 µM | NCI-H522 > 100 µM | SNB-75 > 100 µM | IGROV-1 > 100 µM | A549 > 100 µM | NCI/ADR-RES > 100 µM | SK-MEL-28 > 100 µM | K562 > 100 µM | EKVX > 100 µM | OVCAR-3 11.1 µM | LOX IMVI > 100 µM | MCF7 > 100 µM | 786-0 > 100 µM | CAKI-1 > 100 µM

COC(=O)C1CCC(=O)N1CN(C(C)=O)c1ccccc1Cl (stereo not drawn)
inactive: UO-31 > 100 µM | RXF 393 > 100 µM | NCI-H226 > 100 µM | HOP-92 > 100 µM | SF-268 > 100 µM | NCI-H522 > 100 µM | SNB-75 > 100 µM | IGROV-1 > 100 µM | A549 > 100 µM | NCI/ADR-RES > 100 µM | SK-MEL-28 > 100 µM | K562 > 10 µM | EKVX > 100 µM | OVCAR-3 > 100 µM | LOX IMVI > 100 µM | MCF7 > 100 µM | 786-0 > 100 µM | CAKI-1 > 100 µM

CCn1c(=O)c2nc(SC)sc2n(-c2ccccc2)c1=S
inactive: UO-31 16.6 µM | RXF 393 67.3 µM | NCI-H226 41 µM | CCRF-CEM 19.6 µM | HOP-92 55.5 µM | SF-268 > 100 µM | NCI-H522 79.3 µM | SNB-75 91.2 µM | IGROV-1 > 100 µM | A549 98.9 µM | NCI/ADR-RES 44.5 µM | SK-MEL-28 > 100 µM | K562 11.3 µM | EKVX > 100 µM | OVCAR-3 68.5 µM | LOX IMVI 42.5 µM | MCF7 76.4 µM | 786-0 > 100 µM

N#Cc1nc(-c2cnccn2)oc1N
inactive: UO-31 62.5 µM | RXF 393 > 100 µM | CCRF-CEM > 100 µM | HOP-92 > 100 µM | SF-268 > 100 µM | SNB-75 > 100 µM | IGROV-1 > 100 µM | A549 > 100 µM | SK-MEL-28 > 100 µM | K562 > 100 µM | EKVX > 100 µM | LOX IMVI > 100 µM | MCF7 > 100 µM | 786-0 > 100 µM | CAKI-1 > 100 µM

Reference: ChEMBL document CHEMBL1201862, “PubChem BioAssay data set” (2004)
